Experimental data reported in patent publication US11931343B2 (ARCUS BIOSCIENCES, INC., priority 2018, dated 2024).

Molecular target: T1, human CD73 (Homo sapiens, UniProt P21589)
T1 sequence (P21589 27-549): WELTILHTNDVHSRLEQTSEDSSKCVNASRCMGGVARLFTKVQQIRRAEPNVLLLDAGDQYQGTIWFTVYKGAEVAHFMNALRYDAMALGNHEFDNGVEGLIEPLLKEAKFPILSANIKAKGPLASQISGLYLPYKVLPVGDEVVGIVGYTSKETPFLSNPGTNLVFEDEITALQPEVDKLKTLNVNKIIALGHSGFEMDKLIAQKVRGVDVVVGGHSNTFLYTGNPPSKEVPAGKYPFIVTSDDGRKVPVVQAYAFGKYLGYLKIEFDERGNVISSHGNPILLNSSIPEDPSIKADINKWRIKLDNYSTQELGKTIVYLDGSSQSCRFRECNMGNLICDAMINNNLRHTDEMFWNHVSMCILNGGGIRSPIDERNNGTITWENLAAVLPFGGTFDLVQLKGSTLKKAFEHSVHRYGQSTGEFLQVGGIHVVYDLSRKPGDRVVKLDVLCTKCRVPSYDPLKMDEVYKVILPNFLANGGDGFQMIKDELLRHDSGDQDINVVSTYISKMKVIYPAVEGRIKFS
Test: Inhibition of Ecto-5′-nucleotidase (CD73) activity in CHO-CD73 cells, phosphate release from AMP
Format: cell-based
Settings: CHO-K1 cells stably transfected with human CD73; 25 μM AMP; 50 minutes, 37° C.; read-out: Potency: CD73 IC50

Row | SMILES | IC50
1 | O=c1[nH]c2ccc(-n3nnc4ccc(-c5ccnn5Cc5ccc(F)cn5)cc43)cc2[nH]1 [Example 203] | 100 to 1000 nM
2 | N#Cc1ccc(Cn2nccc2-c2ccc3nnn(-c4ccc5[nH]c(=O)[nH]c5c4)c3c2)nc1 [Example 204] | 100 to 1000 nM
3 | O=c1[nH]c2ccc(-n3nnc4c(F)cc(-c5ccnn5CCc5ccc(Cl)cc5)cc43)cc2[nH]1 [Example 205] | > 1000 nM
4 | O=c1[nH]c2ccc(-n3nnc4c(F)cc(-c5ccnn5Cc5cccnn5)cc43)cc2[nH]1 [Example 206] | > 1000 nM
5 | Cc1ccc(Cn2nccc2-c2cc(Cl)c3nnn(-c4ccc5[nH]c(=O)[nH]c5c4)c3c2)cc1F [Example 207] | 100 to 1000 nM
6 | Cc1cc(F)ccc1Cn1nccc1-c1cc(Cl)c2nnn(-c3ccc4[nH]c(=O)[nH]c4c3)c2c1 [Example 208] | 100 to 1000 nM
7 | O=c1[nH]c2ccc(-n3nnc4c(F)cc(-c5ccnn5Cc5ncccn5)cc43)cc2[nH]1 [Example 209] | > 1000 nM
8 | CS(=O)(=O)c1cc(Cl)ccc1Cn1nccc1-c1cc(F)c2nnn(-c3ccc4[nH]c(=O)[nH]c4c3)c2c1 [Example 210] | 100 to 1000 nM
9 | N#Cc1ccc(Cn2nccc2-c2cc(F)c3nnn(-c4ccc5[nH]c(=O)[nH]c5c4)c3c2)c(C#N)c1 [Example 211] | 100 to 1000 nM
10 | O=c1[nH]c2ccc(-n3nnc4c(F)cc(-c5ccnn5Cc5ccncn5)cc43)cc2[nH]1 [Example 212] | > 1000 nM
11 | O=c1[nH]c2ccc(-n3nnc4c(Cl)cc(-c5ccnn5-c5cccc6cccnc56)cc43)cc2[nH]1 [Example 213] | > 1000 nM
12 | N#Cc1ccccc1Cn1nccc1-c1cc(F)c2nnn(-c3ccc4[nH]c(=O)[nH]c4c3)c2c1 [Example 214] | > 1000 nM
13 | O=c1[nH]c2ccc(-n3nnc4c(F)cc(-c5ccnn5CCc5cccc(Cl)c5)cc43)cc2[nH]1 [Example 215] | > 1000 nM
14 | Cc1cccc(-n2nccc2-c2cc(F)c3nnn(-c4ccc5[nH]c(=O)[nH]c5c4)c3c2)c1 [Example 216] | > 1000 nM
15 | Cc1cccc(-n2nccc2-c2cc(Cl)c3nnn(-c4ccc5[nH]c(=O)[nH]c5c4)c3c2)c1 [Example 217] | 100 to 1000 nM
16 | N#Cc1ccc(Cn2nccc2-c2cnc3c(N)nn(-c4ccc5cn[nH]c5c4)c3c2)cc1 [Example 218] | 100 to 1000 nM
17 | N#Cc1ccc(Cn2nccc2-c2cnc3c(N)nn(-c4ccc5[nH]c(=O)[nH]c5c4)c3c2)cc1 [Example 219] | 100 to 1000 nM
18 | COCc1ccc(Cn2nccc2-c2cc(F)c3nnn(-c4ccc5[nH]c(=O)[nH]c5c4)c3c2)cc1 [Example 220] | > 1000 nM
19 | O=c1[nH]c2ccc(-n3nnc4c(F)cc(-c5ccnn5CCc5ccccc5Cl)cc43)cc2[nH]1 [Example 221] | > 1000 nM
20 | O=c1[nH]c2ccc(-n3nnc4c(Cl)cc(-c5ccnn5-c5cccc(C(F)(F)F)c5)cc43)cc2[nH]1 [Example 222] | 100 to 1000 nM
21 | O=c1[nH]c2ccc(-n3nnc4c(F)cc(-c5ccnn5Cc5ccc6[nH]ncc6c5)cc43)cc2[nH]1 [Example 223] | 100 to 1000 nM
22 | Cc1ccc(Cn2nccc2-c2cc(Cl)c3nnn(-c4ccc5[nH]c(=O)[nH]c5c4)c3c2)c(F)c1 [Example 224] | < 100 nM

Row | SMILES | IC50
23 | Cc1cc(Cl)cnc1Cn1nccc1-c1cc(Cl)c2nnn(-c3ccc4[nH]c(=O)[nH]c4c3)c2c1 [Example 225] | 100 to 1000 nM
24 | Cc1cc(C)cc(-n2nccc2-c2cc(F)c3nnn(-c4ccc5[nH]c(=O)[nH]c5c4)c3c2)c1 [Example 226] | 100 to 1000 nM
25 | O=c1[nH]c2ccc(-n3nnc4c(F)cc(-c5ccnn5-c5cc(Cl)cc(Cl)c5)cc43)cc2[nH]1 [Example 227] | 100 to 1000 nM
26 | N#Cc1ccc(Cn2nccc2-c2cc(Cl)c3nnn(-c4ccc5[nH]c(=O)[nH]c5c4)c3c2)c(F)c1 [Example 228] | < 100 nM
27 | O=c1[nH]c2ccc(-n3nnc4c(F)cc(-c5ccnn5Cc5cccc6c5OC(F)(F)O6)cc43)cc2[nH]1 [Example 229] | > 1000 nM
28 | O=c1[nH]c2ccc(-n3nnc4c(Cl)cc(-c5ccnn5Cc5ccncc5Cl)cc43)cc2[nH]1 [Example 230] | 100 to 1000 nM
29 | O=c1[nH]c2ccc(-n3nnc4c(F)cc(-c5ccnn5Cc5ccc(Cl)cc5)cc43)cc2[nH]1 [Example 231] | 100 to 1000 nM
30 | N#Cc1ccc(Cn2nccc2-c2cc(F)c3nnn(-c4ccc5[nH]c(=O)[nH]c5c4)c3c2)c(N2CCCC2=O)c1 [Example 232] | 100 to 1000 nM
31 | O=c1[nH]c2ccc(-n3nnc4c(F)cc(-c5ccnn5Cc5ccc6c(c5)OC(F)(F)O6)cc43)cc2[nH]1 [Example 233] | > 1000 nM
32 | Cc1ccc(Cn2nccc2-c2cc(Cl)c3nnn(-c4ccc5[nH]c(=O)[nH]c5c4)c3c2)c(Cl)c1 [Example 234] | 100 to 1000 nM
33 | N#Cc1ccc(Cn2nccc2-c2cc(F)c3nnn(-c4ccc5[nH]c(=O)[nH]c5c4)c3c2)c(Cl)c1 [Example 235] | < 100 nM
34 | COc1cc(F)ccc1Cn1nccc1-c1cc(F)c2nnn(-c3ccc4[nH]c(=O)[nH]c4c3)c2c1 [Example 236] | > 1000 nM
35 | COc1cc(F)ccc1Cn1nccc1-c1cc2c(cn1)nnn2-c1ccc2[nH]c(=O)[nH]c2c1 [Example 237] | > 1000 nM
36 | O=c1[nH]c2ccc(-n3nnc4c(Cl)cc(-c5ccnn5Cc5ccncc5F)cc43)cc2[nH]1 [Example 238] | 100 to 1000 nM
37 | N#Cc1ccc(Cn2nccc2-c2cc(F)c3nnn(-c4ccc5[nH]c(=O)[nH]c5c4)c3c2)c(F)c1 [Example 239] | 100 to 1000 nM
38 | N#Cc1ccc(Cn2nccc2-c2ccc3nnn(-c4ccc5[nH]c(=O)[nH]c5c4)c3c2)c(F)c1 [Example 240] | 100 to 1000 nM
39 | Cc1cc(C)cc(-n2nccc2-c2cc(Cl)c3nnn(-c4ccc5[nH]c(=O)[nH]c5c4)c3c2)c1 [Example 241] | 100 to 1000 nM
40 | O=c1[nH]c2ccc(-n3nnc4c(F)cc(-c5ccnn5Cc5cccc6cn[nH]c56)cc43)cc2[nH]1 [Example 242] | > 1000 nM
41 | O=c1[nH]c2ccc(-n3nnc4c(F)cc(-c5ccnn5Cc5nc6ccccc6[nH]5)cc43)cc2[nH]1 [Example 243] | 100 to 1000 nM
42 | Cc1ncc(Cn2nccc2-c2cc(Cl)c3nnn(-c4ccc5[nH]c(=O)[nH]c5c4)c3c2)o1 [Example 244] | > 1000 nM
43 | COc1ccc(Cn2nccc2-c2cc(F)c3nnn(-c4ccc5[nH]c(=O)[nH]c5c4)c3c2)c(F)c1 [Example 245] | 100 to 1000 nM
44 | COc1ccc(Cn2nccc2-c2cc(F)c3nnn(-c4ccc5[nH]c(=O)[nH]c5c4)c3c2)c(Cl)c1 [Example 246] | 100 to 1000 nM

Row | SMILES | IC50
45 | COc1ccc(Cn2nccc2-c2cc3c(cn2)nnn3-c2ccc3[nH]c(=O)[nH]c3c2)c(F)c1 [Example 247] | 100 to 1000 nM
46 | COc1ccc(Cn2nccc2-c2cc3c(cn2)nnn3-c2ccc3[nH]c(=O)[nH]c3c2)c(Cl)c1 [Example 248] | 100 to 1000 nM
47 | Cn1nccc1Cn1nccc1-c1cc(F)c2nnn(-c3ccc4[nH]c(=O)[nH]c4c3)c2c1 [Example 249] | > 1000 nM
48 | N#Cc1ccc(Cn2nccc2-c2cc(Cl)c3nnn(-c4ccc5[nH]c(=O)[nH]c5c4)c3c2)c(Cl)c1 [Example 250] | < 100 nM
49 | CS(=O)(=O)Nc1cc(Cl)ccc1Cn1nccc1-c1cc(F)c2nnn(-c3ccc4[nH]c(=O)[nH]c4c3)c2c1 [Example 251] | > 1000 nM
50 | O=c1[nH]c2ccc(-n3nnc4c(Cl)cc(-c5ccnn5Cc5cc(F)ccc5F)cc43)cc2[nH]1 [Example 252] | > 1000 nM
51 | Cc1ccc(Cn2nccc2-c2cc(Cl)c3nnn(-c4ccc5[nH]c(=O)[nH]c5c4)c3c2)c(F)c1F [Example 253] | 100 to 1000 nM
52 | O=c1[nH]c2ccc(-n3nnc4c(Cl)cc(-c5ccnn5Cc5ccc(F)c(F)c5)cc43)cc2[nH]1 [Example 254] | 100 to 1000 nM
53 | N#Cc1cnc(Cn2nccc2-c2cc(F)c3nnn(-c4ccc5[nH]c(=O)[nH]c5c4)c3c2)c(F)c1 [Example 255] | 100 to 1000 nM
54 | O=c1[nH]c2ccc(-n3nnc4c(Cl)cc(-c5ccnn5Cc5cc(F)c(Cl)cc5Cl)cc43)cc2[nH]1 [Example 256] | 100 to 1000 nM
55 | O=c1[nH]c2ccc(-n3nnc4c(F)cc(-c5ccnn5Cc5ccc6[nH]cnc6c5)cc43)cc2[nH]1 [Example 257] | > 1000 nM
56 | CC(C)c1cccc(-n2nccc2-c2cc(Cl)c3nnn(-c4ccc5[nH]c(=O)[nH]c5c4)c3c2)c1 [Example 258] | 100 to 1000 nM
57 | CS(=O)(=O)c1cc(C#N)ccc1Cn1nccc1-c1cc(F)c2nnn(-c3ccc4[nH]c(=O)[nH]c4c3)c2c1 [Example 260] | 100 to 1000 nM
58 | CCS(=O)(=O)c1cc(C#N)ccc1Cn1nccc1-c1cc(F)c2nnn(-c3ccc4[nH]c(=O)[nH]c4c3)c2c1 [Example 261] | 100 to 1000 nM
59 | O=c1[nH]c2ccc(-n3nnc4c(Cl)cc(-c5ccnn5C5CCc6cc(Cl)ccc65)cc43)cc2[nH]1 (centres unmarked) [Example 262] | 100 to 1000 nM
60 | Cc1cc(-n2nccc2-c2cc(Cl)c3nnn(-c4ccc5[nH]c(=O)[nH]c5c4)c3c2)ccc1Cl [Example 263] | > 1000 nM
61 | C=C(C)c1cc(C#N)ccc1Cn1nccc1-c1cc(F)c2nnn(-c3ccc4[nH]c(=O)[nH]c4c3)c2c1 [Example 264] | 100 to 1000 nM
62 | O=c1[nH]c2ccc(-n3nnc4c(Cl)cc(-c5ccnn5Cc5cccc[n+]5[O-])cc43)cc2[nH]1 [Example 265] | > 1000 nM
63 | Cn1ccc(Cn2nccc2-c2cc(F)c3nnn(-c4ccc5[nH]c(=O)[nH]c5c4)c3c2)n1 [Example 266] | > 1000 nM
64 | N#Cc1ccc(Cn2nccc2-c2cc(F)c3nnn(-c4ccc5[nH]c(=O)[nH]c5c4)c3c2)c(Br)c1 [Example 267] | 100 to 1000 nM
65 | N#Cc1ccc(Cn2nccc2-c2cc(F)c3nnn(-c4ccc5[nH]c(=O)[nH]c5c4)c3c2)c(CN2CCOCC2)c1 [Example 268] | > 1000 nM
